The source made the active and inactive calls. The calls are words filed in the database; no cut-off is given here. Square brackets hold non-standard residues; d marks the D form. Peptide text beside a SMILES is read from it. * marks the point of attachment. Asu = N[C@@H](CCCCCC(=O)O)C(=O)O; pGlu = O=C1CC[C@@H](C(=O)O)N1; NHPh = c1ccc(N*)cc1; NHOH = ON*
Assays:
Histone deacetylase 11 = molecular target: T1, Histone deacetylase 11 (Homo sapiens, UniProt Q96DB2); assay: Inhibition of human HDAC11 using RHKK(Ac) as substrate by fluorimetric analysis
T1 sequence (Q96DB2 whole entry): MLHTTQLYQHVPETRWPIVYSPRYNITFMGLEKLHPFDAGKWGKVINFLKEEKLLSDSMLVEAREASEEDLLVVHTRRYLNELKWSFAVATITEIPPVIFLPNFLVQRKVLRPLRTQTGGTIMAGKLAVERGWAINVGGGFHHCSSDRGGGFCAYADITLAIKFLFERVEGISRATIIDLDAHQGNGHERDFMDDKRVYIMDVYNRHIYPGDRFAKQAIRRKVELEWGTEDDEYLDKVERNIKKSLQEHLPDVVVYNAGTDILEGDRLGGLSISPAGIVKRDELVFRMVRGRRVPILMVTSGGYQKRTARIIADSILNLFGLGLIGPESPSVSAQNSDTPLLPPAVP

Histone deacetylase 3 = Histone deacetylase 3 (Homo sapiens, UniProt O15379); assay: Inhibition of human HDAC3 using RHKK(Ac) as substrate by fluorimetric analysis
L6 = assay: Cytotoxicity against rat L6 cells; type: ADME, cell-based
Histone deacetylase 8 = molecular target: T2, Histone deacetylase 8 (Homo sapiens, UniProt Q9BY41); assay: Inhibition of human HDAC8 using RHK(Ac)K(Ac) as substrate by fluorimetric analysis
T2 sequence (Q9BY41 whole entry): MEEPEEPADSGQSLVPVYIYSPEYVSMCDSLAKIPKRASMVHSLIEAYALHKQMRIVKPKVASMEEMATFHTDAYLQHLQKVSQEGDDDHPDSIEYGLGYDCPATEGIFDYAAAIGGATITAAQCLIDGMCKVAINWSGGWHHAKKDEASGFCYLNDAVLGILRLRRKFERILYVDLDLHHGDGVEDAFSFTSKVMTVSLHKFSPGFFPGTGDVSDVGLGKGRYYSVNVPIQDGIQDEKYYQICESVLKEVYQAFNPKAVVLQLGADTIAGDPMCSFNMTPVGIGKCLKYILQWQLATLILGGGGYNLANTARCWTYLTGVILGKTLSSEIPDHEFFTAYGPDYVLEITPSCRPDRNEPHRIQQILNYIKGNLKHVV

Trypanosoma cruzi = assay: Antiprotozoan activity against Trypanosoma cruzi Tulahuen C4 amastigotes; type: functional, organism-based
Histone deacetylase 1 = Histone deacetylase 1 (Homo sapiens, UniProt Q13547); assay: Inhibition of human HDAC1 using RHKK(Ac) as substrate by fluorimetric analysis
[1] = molecular target: T3, Polyamine deacetylase HDAC10 (Homo sapiens, UniProt Q969S8); assay: Inhibition of human HDAC10 using RHKK(Ac) as substrate by fluorimetric analysis
T3 sequence (Q969S8 whole entry): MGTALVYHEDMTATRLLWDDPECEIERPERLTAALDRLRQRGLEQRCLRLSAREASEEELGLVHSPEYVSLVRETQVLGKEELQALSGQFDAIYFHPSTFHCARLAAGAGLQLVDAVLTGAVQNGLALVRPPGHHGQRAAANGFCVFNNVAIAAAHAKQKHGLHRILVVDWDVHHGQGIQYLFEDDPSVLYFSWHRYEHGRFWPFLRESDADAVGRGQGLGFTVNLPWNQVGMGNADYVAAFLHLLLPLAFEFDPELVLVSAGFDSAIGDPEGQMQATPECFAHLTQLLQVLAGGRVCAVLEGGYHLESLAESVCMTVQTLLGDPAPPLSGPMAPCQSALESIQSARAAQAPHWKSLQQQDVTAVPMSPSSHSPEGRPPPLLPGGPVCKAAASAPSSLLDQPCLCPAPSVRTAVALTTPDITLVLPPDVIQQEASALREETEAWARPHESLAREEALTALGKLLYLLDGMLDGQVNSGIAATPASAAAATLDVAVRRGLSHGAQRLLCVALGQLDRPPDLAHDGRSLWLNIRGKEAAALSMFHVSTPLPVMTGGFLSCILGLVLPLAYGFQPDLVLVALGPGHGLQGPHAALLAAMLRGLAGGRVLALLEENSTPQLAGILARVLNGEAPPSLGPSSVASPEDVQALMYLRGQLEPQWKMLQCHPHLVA

Histone deacetylase 2 = Histone deacetylase 2 (Homo sapiens, UniProt Q92769); assay: Inhibition of human HDAC2 using RHKK(Ac) as substrate by fluorimetric analysis
[2] = molecular target: T4, Protein deacetylase HDAC6 (Homo sapiens, UniProt Q9UBN7); assay: Inhibition of human HDAC6 using RHKK(Ac) as substrate by fluorimetric analysis
T4 sequence (Q9UBN7 whole entry): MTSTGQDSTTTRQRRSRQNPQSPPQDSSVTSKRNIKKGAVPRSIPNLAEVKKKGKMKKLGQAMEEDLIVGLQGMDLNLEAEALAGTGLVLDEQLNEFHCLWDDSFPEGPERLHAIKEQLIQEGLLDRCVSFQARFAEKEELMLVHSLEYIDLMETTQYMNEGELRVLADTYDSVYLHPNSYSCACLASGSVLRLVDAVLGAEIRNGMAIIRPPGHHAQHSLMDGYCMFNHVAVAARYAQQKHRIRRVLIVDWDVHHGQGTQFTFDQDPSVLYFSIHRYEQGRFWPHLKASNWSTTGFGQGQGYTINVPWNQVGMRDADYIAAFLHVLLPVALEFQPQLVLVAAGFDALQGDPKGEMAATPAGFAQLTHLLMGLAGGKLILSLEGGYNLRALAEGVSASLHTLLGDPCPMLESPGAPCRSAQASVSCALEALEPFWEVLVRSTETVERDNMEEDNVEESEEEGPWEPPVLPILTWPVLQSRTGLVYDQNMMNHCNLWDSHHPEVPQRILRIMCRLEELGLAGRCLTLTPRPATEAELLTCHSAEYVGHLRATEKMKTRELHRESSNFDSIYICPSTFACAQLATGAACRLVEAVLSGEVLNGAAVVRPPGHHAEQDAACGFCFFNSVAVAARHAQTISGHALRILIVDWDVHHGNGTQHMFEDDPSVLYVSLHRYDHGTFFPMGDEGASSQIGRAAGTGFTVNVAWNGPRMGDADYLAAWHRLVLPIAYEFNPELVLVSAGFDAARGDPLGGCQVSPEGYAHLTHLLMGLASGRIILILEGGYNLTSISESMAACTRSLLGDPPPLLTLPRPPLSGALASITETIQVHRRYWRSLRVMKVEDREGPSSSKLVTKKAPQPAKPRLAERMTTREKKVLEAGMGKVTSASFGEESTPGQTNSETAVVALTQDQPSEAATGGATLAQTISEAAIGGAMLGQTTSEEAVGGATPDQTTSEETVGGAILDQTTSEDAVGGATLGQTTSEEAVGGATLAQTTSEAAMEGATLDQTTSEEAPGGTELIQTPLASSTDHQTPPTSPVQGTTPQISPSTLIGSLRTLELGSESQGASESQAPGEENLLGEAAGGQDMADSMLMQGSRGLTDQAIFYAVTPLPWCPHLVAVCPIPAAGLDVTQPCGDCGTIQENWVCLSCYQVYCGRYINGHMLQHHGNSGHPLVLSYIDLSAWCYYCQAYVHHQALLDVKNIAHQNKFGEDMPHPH

Leishmania donovani [3] = assay: Antiprotozoan activity against Leishmania donovani MHOM- ET-67/L82 amastigotes; type: functional, organism-based
Plasmodium falciparum [4] = assay: Antiprotozoan activity against Plasmodium falciparum NF54 IEF forms; type: functional, organism-based
Giardia intestinalis = assay: Antiprotozoan activity against Giardia lamblia G1; type: functional, organism-based; conditions: Giardia duodenalis
[5] = test system: Trypanosoma brucei rhodesiense; assay: Antiprotozoan activity against Trypanosoma brucei rhodesiense STIB 900 trypomastigotes; type: functional, organism-based
Plasmodium falciparum [6] = assay: Antiprotozoan activity against Plasmodium falciparum infected in mouse assessed as reduction in parasite growth at 50 mg/kg, ip QD for 4 days; type: functional; conditions: 96 h, route intraperitoneal
Plasmodium falciparum [7] = assay: Antiprotozoan activity against Plasmodium falciparum infected in mouse assessed as mouse survival at 50 mg/kg, ip QD for 4 days; type: functional; conditions: route intraperitoneal
Leishmania donovani [8] = assay: Antiprotozoan activity against Leishmania donovani MHOM- ET-67/L82 amastigotes at 1 uM; type: functional, organism-based
NCI-H460 = assay: Cytotoxicity against human NCI-H460 cells; type: functional, cell-based
[9] = Leishmania donovani, MHOM- ET-67/L82, read-out: IC50

Sequence of Histone deacetylase 2 (Q92769 whole entry): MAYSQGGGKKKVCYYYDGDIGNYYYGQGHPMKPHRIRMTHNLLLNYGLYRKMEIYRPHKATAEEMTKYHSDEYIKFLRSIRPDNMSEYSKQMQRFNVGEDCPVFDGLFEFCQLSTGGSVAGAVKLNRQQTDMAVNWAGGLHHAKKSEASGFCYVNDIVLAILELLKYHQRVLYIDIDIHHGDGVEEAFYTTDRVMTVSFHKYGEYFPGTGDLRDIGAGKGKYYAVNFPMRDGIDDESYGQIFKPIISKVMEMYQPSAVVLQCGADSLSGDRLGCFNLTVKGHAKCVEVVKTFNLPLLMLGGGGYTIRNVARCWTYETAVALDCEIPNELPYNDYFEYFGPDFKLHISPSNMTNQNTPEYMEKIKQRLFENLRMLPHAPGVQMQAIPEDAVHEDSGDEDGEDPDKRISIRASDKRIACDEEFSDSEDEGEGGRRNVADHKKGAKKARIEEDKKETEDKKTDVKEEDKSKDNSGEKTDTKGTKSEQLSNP
Sequence of Histone deacetylase 1 (Q13547 whole entry): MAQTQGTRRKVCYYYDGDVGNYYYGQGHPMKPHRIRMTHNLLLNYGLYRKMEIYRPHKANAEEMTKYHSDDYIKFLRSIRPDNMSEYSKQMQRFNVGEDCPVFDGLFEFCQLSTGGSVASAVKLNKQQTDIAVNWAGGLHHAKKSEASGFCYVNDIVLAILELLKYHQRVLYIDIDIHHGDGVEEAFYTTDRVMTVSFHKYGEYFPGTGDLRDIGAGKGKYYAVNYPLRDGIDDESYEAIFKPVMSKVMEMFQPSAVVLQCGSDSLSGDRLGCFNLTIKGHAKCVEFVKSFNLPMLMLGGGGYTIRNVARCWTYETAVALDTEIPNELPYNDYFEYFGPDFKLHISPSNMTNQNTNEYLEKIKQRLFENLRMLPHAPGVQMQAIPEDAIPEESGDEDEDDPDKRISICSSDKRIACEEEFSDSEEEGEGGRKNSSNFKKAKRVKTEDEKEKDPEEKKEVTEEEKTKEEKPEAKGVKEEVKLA
Sequence of Histone deacetylase 3 (O15379 whole entry): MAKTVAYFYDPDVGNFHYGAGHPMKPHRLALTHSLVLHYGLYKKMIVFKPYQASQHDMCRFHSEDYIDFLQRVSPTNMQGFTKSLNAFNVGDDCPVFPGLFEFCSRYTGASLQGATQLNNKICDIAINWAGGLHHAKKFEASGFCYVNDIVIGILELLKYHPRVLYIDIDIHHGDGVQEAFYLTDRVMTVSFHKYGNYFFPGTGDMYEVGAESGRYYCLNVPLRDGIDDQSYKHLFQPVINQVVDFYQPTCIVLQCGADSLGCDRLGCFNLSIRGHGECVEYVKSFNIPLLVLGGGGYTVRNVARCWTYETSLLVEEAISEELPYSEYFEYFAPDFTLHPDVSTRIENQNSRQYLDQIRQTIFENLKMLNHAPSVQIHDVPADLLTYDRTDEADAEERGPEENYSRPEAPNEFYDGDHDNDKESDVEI

IC50 (Trypanosoma cruzi) [nM]	IC50 (Plasmodium falciparum [4]) [nM]	IC50 (Giardia intestinalis) [nM]	IC50 [5] [nM]	Compound	IC50 (L6) [nM]	inhibition in vivo at 50 mg/kg (Plasmodium falciparum [6]) [%]	further results
849	6	4640	5520	Cc1cccc(NC(=O)[C@H](CCCCCC(=O)NO)NC(=O)[C@H]2CCC(=O)N2)c1	1230	33.8	IC50 (Histone deacetylase 11): 15 nM
2130	–	–	–	O=C(Cn1ccnc1[N+](=O)[O-])NCc1ccccc1 [BENZNIDAZOLE]	–	–	–
10100	25	–	–	O=C(CCCCCCC(=O)Nc1ccccc1)NO [VORINOSTAT]	–	–	Activity (Leishmania donovani [8]): inactive
2100	6570	8110	2510	CC(=O)SCCCCC[C@H](NC(=O)[C@H]1CCC(=O)N1)C(=O)Nc1ccccc1	189	–	Activity (Leishmania donovani [8]): inactive; IC50 (NCI-H460): 66 nM; IC50 (Leishmania donovani [3]): Not Active
48400	19	10700	20000	O=C(CCCCC[C@H](NC(=O)[C@@H]1CCC(=O)N1)C(=O)Nc1ccccc1)NO ([pGlu]-[Asu](NHOH)-NHPh)	75100	87.5	IC50 (Histone deacetylase 11): 13 nM; IC50 (Histone deacetylase 3): 62 nM; IC50 (Histone deacetylase 8): 93 nM; IC50 (NCI-H460): 2200 nM; IC50 (Histone deacetylase 1): 34 nM; IC50 [1]: 113 nM; IC50 (Histone deacetylase 2): 89 nM; IC50 [2]: 3 nM
33000	23	12800	6040	O=C(CCCCC[C@H](NC(=O)[C@@H]1CC(=O)N1)C(=O)Nc1ccccc1)NO	7460	–	IC50 (Histone deacetylase 11): 37 nM; IC50 (Histone deacetylase 3): 88 nM; IC50 (Histone deacetylase 8): 137 nM; IC50 (NCI-H460): 5400 nM; IC50 (Histone deacetylase 1): 59 nM; IC50 [1]: 125 nM; IC50 (Histone deacetylase 2): 143 nM; IC50 [2]: 6 nM
–	–	580	–	Cc1ncc([N+](=O)[O-])n1CCO [METRONIDAZOLE]	–	–	–

More lines, now with the values behind:

Compound	IC50 (Trypanosoma cruzi) [nM]	IC50 (Plasmodium falciparum [4]) [nM]	IC50 (Giardia intestinalis) [nM]	IC50 [5] [nM]	IC50 (L6) [nM]	inhibition in vivo at 50 mg/kg (Plasmodium falciparum [6]) [%]	further results
O=C1CC[C@H](C(=O)N[C@@H](CCCCCS)C(=O)Nc2ccccc2)N1	25800	9660	12300	3230	5250	–	IC50 (Histone deacetylase 11): 14 nM; IC50 (Histone deacetylase 3): 5 nM; IC50 (Histone deacetylase 8): 281 nM; IC50 (Histone deacetylase 1): 13 nM; IC50 [1]: 11 nM; IC50 (Histone deacetylase 2): 78 nM; IC50 [2]: 3 nM; IC50 (Leishmania donovani [3]; [9]): > 10000 nM
C[C@@H]1CC[C@H]2[C@@H](C)C(=O)O[C@@H]3O[C@@]4(C)CC[C@@H]1[C@]32OO4 [ARTEMISININ]	–	–	–	–	–	99.9	Survival (Plasmodium falciparum [7]): >30 days
COc1cc([C@@H]2c3cc4c(cc3[C@H](O)[C@H]3COC(=O)[C@H]23)OCO4)cc(OC)c1OC [PODOFILOX]	–	–	–	–	19	–	–
O=C1CC[C@H](C(=O)N[C@@H](CCCCCS)C(=O)Nc2cccc(C(F)(F)F)c2)N1	19100	3260	64800	4750	2670	–	IC50 (Leishmania donovani [3]; [9]): > 3000 nM
CC(=O)SCCCCC[C@H](NC(=O)[C@H]1CCC(=O)N1)C(=O)Nc1cccc(C(F)(F)F)c1	3980	3240	40900	2380	91	–	Activity (Leishmania donovani [8]): inactive; IC50 (Leishmania donovani [3]): Not Active
CCCCCCCCCCCCCCCCOP(=O)([O-])OCC[N+](C)(C)C [MILTEFOSINE]	–	–	–	–	–	–	IC50 (Leishmania donovani [3]; [9]): 3150 nM
O=C(CCCCC[C@H](NC(=O)[C@H]1CCC(=O)N1)C(=O)Nc1cccc(C(F)(F)F)c1)NO	972	3	4270	4160	638	63.2	–
C[C@H]1[C@@H](O)O[C@@H]2O[C@@]3(C)CC[C@H]4[C@H](C)CC[C@@H]1[C@@]24OO3 [ARTENIMOL]	–	–	–	–	–	99.8	–

— ChEMBL document CHEMBL3352629, “Hydroxamic acid based histone deacetylase inhibitors with confirmed activity against the malaria parasite” (Bioorg Med Chem Lett, 2015)
